Test results published in PMC9256669, “Monomethyl auristatin antibody and peptide drug conjugates for trimodal cancer chemo-radio-immunotherapy” (Nature Communications, 2022).
“And” between values parts separate entries of the source, which are not always exact repeats. Equal values may be shown once. “Also recorded” adds a separate entry of the source. Read-outs that look alike come from different tables or passages of the source. Non-standard residues stand in square brackets, D forms with d. Residues, ends and D or L forms follow the SMILES beside them. Dolaproine = CO[C@@H]([C@@H]1CCCN1)[C@@H](C)C(=O)O; Dil = CC[C@H](C)[C@H](NC)[C@@H](CC(=O)O)OC; NMeV = CN[C@H](C(=O)O)C(C)C

How the values were obtained:
[1] = cited from earlier work
MOC1 = test: Cytotoxicity, Alamar Blue assay; type: cell-based, murine
Experimental: (§1) Murine colorectal (MC38 (ENH204-FP)) cancer cell lines were obtained from Kerafast. Murine head and neck MOC1 and MOC2 were generously provided by Dr. R. Uppaluri. CAL27 PIK3CA H1047R expressing cells and 4MOSC1 cells were generated in Dr. Gutkind’s laboratory and previously characterized[42],[55]. […] MC38 cells were cultured in DMEM supplemented with 10% FBS, 1 mM sodium pyruvate (Gibco), 1% non-essential amino acids (Gibco), and 10 mM HEPES (Gibco). MOC1 and MOC2 cells were cultured in IMDM (Lonza)/F-12K nutrient mixture at a 2:1 mixture with 5% FBS, 5 ng/ml EGF (EMD Millipore), 400 ng/ml hydrocortisone (Sigma), and […] insulin (Sigma). On receipt, each cell line was expanded, cryopreserved as low passage stocks, and routinely tested for mycoplasma. Cisplatin (Enzo Biosciences), paclitaxel (Sigma), and MMAE (Concortis) were reconstituted in DMSO. […] Clinical grade cetuximab (Erbitux, Lilly Medical) was obtained from UCSD Moores Cancer Center Pharmacy.
(§2) Cells were plated in 96-well plates and exposed to a drug concentration range for 72 h. Alamar Blue was added to the cells and allowed to incubate for 2–4 h at 37 °C. Plates were analyzed using a plate reader with fluorescence measured at 560 nm. Fractional survival was normalized to untreated control cell fluorescent values. Drug IC50 was calculated using Prism software (GraphPad, La Jolla, CA). Cell viability, cytotoxicity and apoptosis were also measured by ApoTox-Glo Triplex Assay (Promega).
(§3) measured by Alamar Blue assay. For Alamar Blue assay cytotoxicity, we measured cell viability at 72 hr of […]

MOC2 = test: Cytotoxicity, Alamar Blue assay; type: cell-based, murine
Experimental: as §1, §2, §3

CAL27 = test: Cytotoxicity, Alamar Blue assay; type: cell-based, human
Experimental: (§4) Murine colorectal (MC38 (ENH204-FP)) cancer cell lines were obtained from Kerafast. Murine head and neck MOC1 and MOC2 were generously provided by Dr. R. Uppaluri. CAL27 PIK3CA H1047R expressing cells and 4MOSC1 cells were generated in Dr. Gutkind’s laboratory and previously characterized[42],[55]. […] MC38 cells were cultured in DMEM supplemented with 10% FBS, 1 mM sodium pyruvate (Gibco), 1% non-essential amino acids (Gibco), and 10 mM HEPES (Gibco). MOC1 and MOC2 cells were cultured in IMDM (Lonza)/F-12K nutrient mixture at a 2:1 mixture with 5% FBS, 5 ng/ml EGF (EMD Millipore), 400 ng/ml hydrocortisone (Sigma), and […] insulin (Sigma). On receipt, each cell line was expanded, cryopreserved as low passage stocks, and routinely tested for mycoplasma. Cisplatin (Enzo Biosciences), paclitaxel (Sigma), and MMAE (Concortis) were reconstituted in DMSO. Clinical-grade CDX3379 was provided by Celldex. Clinical grade cetuximab (Erbitux, Lilly Medical) was obtained from UCSD Moores Cancer Center Pharmacy.
as §2

Detroit 562 = test: Cytotoxicity, Alamar Blue assay; type: cell-based, human
Experimental: as §4, §2

4MOSC1 = test: Cytotoxicity, Alamar Blue assay; type: cell-based, murine
Experimental: as §4, §2

MC38 = test: Cytotoxicity, Alamar Blue assay; type: cell-based, murine
Experimental: as §4, §2

B16 = test: Cytotoxicity, Alamar Blue assay; type: cell-based, murine
Experimental: as §4, §2

LL2 = test: Cytotoxicity, Alamar Blue assay; type: cell-based, murine
Experimental: as §4, §2

A549 = test: Cytotoxicity, Alamar Blue assay; type: cell-based, human; conditions: 72 h drug exposure, one value per biological replicate
Experimental: as §2

HCT116 = test: Cytotoxicity, Alamar Blue assay; type: cell-based, human; conditions: 72 h drug exposure, one value per biological replicate
Experimental: as §2

[2] = test system: melanoma and lung cancer models; conditions: without radiotherapy; cited from earlier work
Source text: In the last decade, therapeutics targeting immune checkpoint inhibitors (i.e., CTLA-4, PD-1, and PD-L1) have revolutionized cancer care for subsets of oncology patients[24],[25]. There is tremendous interest in developing strategies to further improve immune checkpoint inhibitor responses to wider patient populations. To achieve increasing therapeutic precision, integrating the specificity of ADC with inherent targeting of radiotherapy and immunotherapy is appealing. […] U3-1402 is a HER3-targeted ADC with a topoisomer ...

B16 tumors = test: Subcutaneous tumor therapy, CDX3379-MMAE or CDX3379-MMAF with IR, mouse survival; type: in vivo, C57BL/6 mice
Experimental: MOC1, B16, LL/2, and MC38 tumor cells were injected subcutaneously into the hindlimbs of 6-week-old female C57BL/6 albino mice in 100 µl of 1:1 Matrigel (BD) and PBS solution. Fractionated IR was delivered focally to the tumor-bearing hindlimbs (3 Gy to MC38 tumors and 5 Gy to LL/2 and B16 tumors) as indicated in figure legends using a PXI X-RAD 225 XL irradiator at maximal dose rate of 3 Gy/min with a beam-conditioning aluminum filter (Precision X-ray Irradiation). For RAG1 KO studies, 6-week-old female Rag1^tm1Mom mice were injected subcutaneously with tumor cells in their hindlimbs (Jackson Labs). For CD8 depletion studies, mice were i.p. injected with anti-CD8 (BioXCell #BE0117) at 10 mg/kg on days −6, −5 and −4 tumor cell implant and then weekly starting on day after tumor cells were injected or control antibody. […] Tumor volumes were measured and calculated using the formula as ½ * length * width^2. Mice were sacrificed when tumor volume reached >1500 mm^3, maximal tumor volume approved on our protocol for subcutaneous tumors.

Molecule: CC[C@H](C)[C@@H]([C@@H](CC(=O)N1CCC[C@H]1[C@H](OC)[C@@H](C)C(=O)N[C@@H](Cc1ccccc1)C(=O)O)OC)N(C)C(=O)[C@@H](NC(=O)[C@@H](NC)C(C)C)C(C)C [MMAF, monomethyl auristatin F] (H-[NMeV]V[Dil][Dolaproine]F-OH)
- cell permeability as free drug [1]: reduced cell permeability compared to MMAE

Molecule: N.N.[Cl][Pt][Cl] [Cisplatin]
- IC50 (MOC1; MOC1; 72 h drug exposure, Alamar Blue; one value per biological replicate; read-out: IC50 values): 13700 nM and 15300 nM and 10400 nM and 10700 nM
- IC50 (MOC2; MOC2, 72 h drug exposure, one value per biological replicate, read-out: IC50 values): 8750 nM and 9990 nM
- IC50 (CAL27; 72 h drug exposure, one value per biological replicate, read-out: IC50 values): 3650 nM and 3760 nM and 7310 nM and 8270 nM and 7270 nM and 6950 nM
- IC50 (Detroit 562; Detroit 562, 72 h drug exposure, one value per biological replicate, read-out: IC50 values): 11500 nM and 9550 nM and 10400 nM and 11800 nM
- IC50 (4MOSC1; 4MOSC1, 72 h drug exposure, one value per biological replicate, read-out: IC50 values): 1370 nM and 1460 nM
- IC50 (MC38; MC38, 72 h drug exposure, one value per biological replicate, read-out: IC50 values): 3640 nM and 3830 nM
- IC50 (B16; B16, 72 h drug exposure, one value per biological replicate, read-out: IC50 values): 3770 nM and 4490 nM
- IC50 (LL2; LL2, 72 h drug exposure, one value per biological replicate, read-out: IC50 values): 1080 nM and 745 nM
- IC50 (A549): 22600 nM and 27200 nM and 13600 nM and 15400 nM
- IC50 (HCT116): 42200 nM and 55500 nM

Molecule: CC(=O)O[C@H]1C(=O)[C@@]2(C)[C@H]([C@H](OC(=O)c3ccccc3)[C@]3(O)C[C@H](OC(=O)[C@H](O)[C@@H](NC(=O)c4ccccc4)c4ccccc4)C(C)=C1C3(C)C)[C@]1(OC(C)=O)CO[C@@H]1C[C@@H]2O [Paclitaxel]
- IC50 (MOC1; read-out: IC50 values; MOC1; 72 h drug exposure, Alamar Blue; one value per biological replicate): 45.4 nM and 54.2 nM and 26.8 nM and 24.6 nM
- IC50 (MOC2; Mus musculus, 72 h, read-out: IC50 values, MOC2, 72 h drug exposure, one value per biological replicate): 43.5 nM
- IC50 (MOC2; read-out: IC50 values, MOC2, 72 h drug exposure, one value per biological replicate): 56.4 nM
- IC50 (CAL27; read-out: IC50 values, 72 h drug exposure, one value per biological replicate): 1.4 nM and 1.52 nM and 3.46 nM and 4.62 nM and 3.12 nM and 3.36 nM
- IC50 (Detroit 562; Homo sapiens, Detroit 562, 72 h, read-out: IC50 values, Detroit 562, 72 h drug exposure, one value per biological replicate): 5.71 nM
- IC50 (Detroit 562; read-out: IC50 values, Detroit 562, 72 h drug exposure, one value per biological replicate): 5.94 nM and 3.87 nM and 4.75 nM
- IC50 (4MOSC1; Mus musculus, 72 h, read-out: IC50 values, 4MOSC1, 72 h drug exposure, one value per biological replicate): 7.65 nM
- IC50 (4MOSC1; read-out: IC50 values, 4MOSC1, 72 h drug exposure, one value per biological replicate): 12.9 nM
- IC50 (MC38; Mus musculus, MC-38, 72 h, read-out: IC50 values, MC38, 72 h drug exposure, one value per biological replicate): 67 nM
- IC50 (MC38; read-out: IC50 values, MC38, 72 h drug exposure, one value per biological replicate): 75.7 nM
- IC50 (B16; Mus musculus, B16, 72 h, read-out: IC50 values, B16, 72 h drug exposure, one value per biological replicate): 6.1 nM
- IC50 (B16; read-out: IC50 values, B16, 72 h drug exposure, one value per biological replicate): 7.8 nM
- IC50 (LL2; Mus musculus, LL/2, 72 h, read-out: IC50 values, LL2, 72 h drug exposure, one value per biological replicate): 15.3 nM
- IC50 (LL2; read-out: IC50 values, LL2, 72 h drug exposure, one value per biological replicate): 16.6 nM
- IC50 (A549): 23.3 nM and 15.1 nM
- IC50 (A549; Homo sapiens, A549, 72 h): 16.6 nM
- IC50 (HCT116): 2.04 nM and 8.38 nM and 12.4 nM and 9.33 nM

Molecule: Enapotamab vedotin: AXL-targeted ADC conjugate with an MMAE warhead
- survival and tumor control [2]: prolonged mouse survival; also recorded: failed to generate durable tumor control

B1: CDX3379-MMAF: anti-HER3 antibody CDX3379 conjugated to MMAF via MC-VC-PABC linker (conjugate, chains of the INN, looked up)
VH: EVQLLESGGGLVQPGGSLRLSCAASGFTFSSYAMSWVRQAPGKGLEWVSAINSQGKSTYYADSVKGRFTISRDNSKNTLYLQMNSLRAEDTAVYYCARWGDEGFDIWGQGTLVTVSS
VL: DIQMTQSPSSLSASVGDRVTITCRASQGISNWLAWYQQKPGKAPKLLIYGASSLQSGVPSRFSGSGSGTDFTLTISSLQPEDFATYYCQQYSSFPTTFGQGTKVEIK
modifications: MMAF via MC-VC-PABC linker
- tumor control and survival, + IR (B16 tumors; B16, 2.5 nmoles ADC x 2 doses + IR 5 Gy x 3): CDX3379-MMAE proved to be superior to CDX3379-MMAF
- Mouse survival, status (B16 tumors; with IR, individual mice, status at the day, Figure 3h): 1
